Measured values published in the supplement of paper PMC10307832.

Experiments:
Experiment in all cases: relative viability (nuclei count vs DMSO), 5 days (fraction); higher = more cells survive
NCI-H1355 = system: NCI-H1355
In short: (§1)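 Relative viability divides the nuclei count in treated wells by that in vehicle wells. Lung cancer cell lines were seeded in 1536-well plates, dosed by pin tool the next day, and fixed and stained after 5 days in one step with final 0.05% Triton X-100, 1% formaldehyde and 1 ug/ml Hoechst. Dosing was a single drug or a fixed anchor-drug dose plus five library-drug doses (not always all listed) in √10 steps, and values are medians of duplicate plates imaged at 4×.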

NCI-H520 = system: NCI-H520
In short: as §1

NCI-H1755 = system: NCI-H1755
In short: as §1

PC-14 = system: PC-14
In short: as §1

HCC-827 = system: HCC-827
In short: as §1

NCI-H1975 = system: NCI-H1975
In short: as §1

H3255 = system: H3255
In short: as §1

PC-3 [JPC-3] = system: PC-3 [JPC-3]
In short: as §1

LK-2 = system: LK-2
In short: as §1

RERF-LC-KJ = system: RERF-LC-KJ
In short: as §1

NCI-H1563 = system: NCI-H1563
In short: as §1

NCI-H2405 = system: NCI-H2405
In short: as §1

NCI-H1734 = system: NCI-H1734
In short: as §1

EKVX = system: EKVX
In short: as §1

NCI-H322M = system: NCI-H322M
In short: as §1

HCC-15 = system: HCC-15
In short: as §1

LCLC-97TM1 = system: LCLC-97TM1
In short: as §1

NCI-H2228 = system: NCI-H2228
In short: as §1

NCI-H1650 = system: NCI-H1650
In short: as §1

NCI-H661 = system: NCI-H661
In short: as §1

CAL-12T = system: CAL-12T
In short: as §1

Which relative viability (NCI-H1355; first compound 0.08 µM) does the source give for COc1nc(C)cnc1NS(=O)(=O)c1cccnc1-c1ccc(-c2nnco2)cc1 [Zibotentan] + CS(=O)(=O)CCNCc1ccc(-c2ccc3ncnc(Nc4ccc(OCc5cccc(F)c5)c(Cl)c4)c3c2)o1 [Lapatinib] (partner 2 µM) here?
Its relative viability is 1.01.

And the relative viability (NCI-H1355; first compound 0.253 µM)?
The relative viability was 1.03.

And the relative viability (NCI-H1355; first compound 0.8 µM)?
The relative viability was 0.946.

And the relative viability (NCI-H1355; first compound 2.53 µM)?
The relative viability was 0.977.

What about the relative viability (NCI-H520; first compound 0.08 µM) of the same compound?
Its relative viability is 0.885.

What about the relative viability (NCI-H520; first compound 0.253 µM) of the same compound?
The relative viability was 0.809.

And the relative viability (NCI-H520; first compound 0.8 µM)?
The relative viability was 0.853.

And the relative viability (NCI-H520; first compound 2.53 µM)?
Its relative viability is 0.927.

And the relative viability (NCI-H1755; first compound 0.08 µM)?
The relative viability was 1.06.

What about the relative viability (NCI-H1755; first compound 0.253 µM) of the same compound?
Its relative viability is 0.988.

And the relative viability (NCI-H1755; first compound 0.8 µM)?
The relative viability was 1.08.

What about the relative viability (NCI-H1755; first compound 2.53 µM) of the same compound?
The relative viability was 1.05.

What about the relative viability (PC-14; first compound 0.08 µM) of the same compound?
Its relative viability is 0.322.

What about the relative viability (PC-14; first compound 0.253 µM) of the same compound?
Its relative viability is 0.314.

What about the relative viability (PC-14; first compound 0.8 µM) of the same compound?
Its relative viability is 0.344.

And the relative viability (PC-14; first compound 2.53 µM)?
The relative viability was 0.348.

What about the relative viability (HCC-827; first compound 0.08 µM) of the same compound?
Its relative viability is 0.157.

And the relative viability (HCC-827; first compound 0.253 µM)?
The relative viability was 0.191.

What about the relative viability (HCC-827; first compound 0.8 µM) of the same compound?
Its relative viability is 0.214.

And the relative viability (HCC-827; first compound 2.53 µM)?
The relative viability was 0.223.

What about the relative viability (NCI-H1975; first compound 0.08 µM) of the same compound?
The relative viability was 0.837.

And the relative viability (NCI-H1975; first compound 0.253 µM)?
Its relative viability is 0.8.

And the relative viability (NCI-H1975; first compound 0.8 µM)?
The relative viability was 0.781.

What about the relative viability (NCI-H1975; first compound 2.53 µM) of the same compound?
The relative viability was 0.884.

And the relative viability (H3255; first compound 0.08 µM)?
The relative viability was 0.271.

What about the relative viability (H3255; first compound 0.253 µM) of the same compound?
The relative viability was 0.255.

What about the relative viability (H3255; first compound 0.8 µM) of the same compound?
Its relative viability is 0.281.

And the relative viability (H3255; first compound 2.53 µM)?
Its relative viability is 0.239.

And the relative viability (PC-3 [JPC-3]; first compound 0.08 µM)?
The relative viability was 0.444.

What about the relative viability (PC-3 [JPC-3]; first compound 0.253 µM) of the same compound?
The relative viability was 0.458.

And the relative viability (PC-3 [JPC-3]; first compound 0.8 µM)?
The relative viability was 0.421.

What about the relative viability (PC-3 [JPC-3]; first compound 2.53 µM) of the same compound?
The relative viability was 0.48.

And the relative viability (LK-2; first compound 0.08 µM)?
The relative viability was 1.02.

And the relative viability (LK-2; first compound 0.253 µM)?
The relative viability was 0.885.

What about the relative viability (LK-2; first compound 0.8 µM) of the same compound?
Its relative viability is 0.917.

And the relative viability (LK-2; first compound 2.53 µM)?
Its relative viability is 0.986.

What about the relative viability (RERF-LC-KJ; first compound 0.08 µM) of the same compound?
The relative viability was 0.89.

What about the relative viability (RERF-LC-KJ; first compound 0.253 µM) of the same compound?
The relative viability was 0.807.

What about the relative viability (RERF-LC-KJ; first compound 0.8 µM) of the same compound?
The relative viability was 0.878.

What about the relative viability (RERF-LC-KJ; first compound 2.53 µM) of the same compound?
Its relative viability is 0.845.

What about the relative viability (NCI-H1563; first compound 0.08 µM) of the same compound?
Its relative viability is 0.993.

And the relative viability (NCI-H1563; first compound 0.253 µM)?
Its relative viability is 0.535.

And the relative viability (NCI-H1563; first compound 0.8 µM)?
The relative viability was 0.905.

And the relative viability (NCI-H1563; first compound 2.53 µM)?
Its relative viability is 0.958.

And the relative viability (NCI-H2405; first compound 0.08 µM)?
Its relative viability is 1.18.

What about the relative viability (NCI-H2405; first compound 0.253 µM) of the same compound?
The relative viability was 0.84.

And the relative viability (NCI-H2405; first compound 0.8 µM)?
The relative viability was 1.06.

And the relative viability (NCI-H2405; first compound 2.53 µM)?
Its relative viability is 1.09.

And the relative viability (NCI-H1734; first compound 0.08 µM)?
The relative viability was 1.2.

And the relative viability (NCI-H1734; first compound 0.253 µM)?
Its relative viability is 1.04.

What about the relative viability (NCI-H1734; first compound 0.8 µM) of the same compound?
The relative viability was 0.996.

And the relative viability (NCI-H1734; first compound 2.53 µM)?
The relative viability was 1.19.

And the relative viability (EKVX; first compound 0.08 µM)?
Its relative viability is 0.184.

What about the relative viability (EKVX; first compound 0.253 µM) of the same compound?
Its relative viability is 0.216.

And the relative viability (EKVX; first compound 0.8 µM)?
The relative viability was 0.194.

What about the relative viability (EKVX; first compound 2.53 µM) of the same compound?
The relative viability was 0.198.

And the relative viability (NCI-H322M; first compound 0.08 µM)?
Its relative viability is 0.553.

And the relative viability (NCI-H322M; first compound 0.253 µM)?
The relative viability was 0.621.

What about the relative viability (NCI-H322M; first compound 0.8 µM) of the same compound?
The relative viability was 0.582.

What about the relative viability (NCI-H322M; first compound 2.53 µM) of the same compound?
Its relative viability is 0.624.

What about the relative viability (HCC-15; first compound 0.08 µM) of the same compound?
Its relative viability is 0.954.

What about the relative viability (HCC-15; first compound 0.253 µM) of the same compound?
Its relative viability is 0.858.

What about the relative viability (HCC-15; first compound 0.8 µM) of the same compound?
The relative viability was 0.951.

What about the relative viability (HCC-15; first compound 2.53 µM) of the same compound?
Its relative viability is 0.828.

And the relative viability (LCLC-97TM1; first compound 0.08 µM)?
The relative viability was 1.01.

What about the relative viability (LCLC-97TM1; first compound 0.253 µM) of the same compound?
Its relative viability is 0.95.

And the relative viability (LCLC-97TM1; first compound 0.8 µM)?
The relative viability was 0.841.

And the relative viability (LCLC-97TM1; first compound 2.53 µM)?
The relative viability was 0.93.

What about the relative viability (NCI-H2228; first compound 0.08 µM) of the same compound?
Its relative viability is 1.41.

And the relative viability (NCI-H2228; first compound 0.253 µM)?
Its relative viability is 1.

And the relative viability (NCI-H2228; first compound 0.8 µM)?
Its relative viability is 0.989.

And the relative viability (NCI-H2228; first compound 2.53 µM)?
Its relative viability is 1.1.

And the relative viability (NCI-H1650; first compound 0.08 µM)?
The relative viability was 0.732.

What about the relative viability (NCI-H1650; first compound 0.8 µM) of the same compound?
Its relative viability is 0.781.

And the relative viability (NCI-H1650; first compound 2.53 µM)?
Its relative viability is 0.813.

What about the relative viability (NCI-H661; first compound 0.08 µM) of the same compound?
Its relative viability is 0.453.

And the relative viability (NCI-H661; first compound 0.253 µM)?
Its relative viability is 0.445.

What about the relative viability (NCI-H661; first compound 0.8 µM) of the same compound?
The relative viability was 0.445.

And the relative viability (NCI-H661; first compound 2.53 µM)?
The relative viability was 0.46.

What about the relative viability (CAL-12T; first compound 0.08 µM) of the same compound?
Its relative viability is 0.606.

And the relative viability (CAL-12T; first compound 0.8 µM)?
The relative viability was 0.55.

And the relative viability (CAL-12T; first compound 2.53 µM)?
Its relative viability is 0.652.
